Data published in ChEMBL document CHEMBL1201862, “PubChem BioAssay data set” (2004).
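Assay format: 96-well plates, 48-hour exposure. At the GI50, growth is halved.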 Active and inactive are the calls of the source. Cut-off read from the data, not from the text of the source: active = GI50 up to about 1.1 µM and inactive = higher.

Experiments:
Assay in all cases: NCI tumour cell line growth inhibition, 48 h
EKVX = test system: EKVX
HCT-116 = test system: HCT-116
HL-60 = test system: HL-60
KM12 = test system: KM12
LOX IMVI = test system: LOX IMVI
LXFL 529 = test system: LXFL 529
M14 = test system: M14
NCI-H460 = test system: NCI-H460
OVCAR-3 = test system: OVCAR-3
OVCAR-8 = test system: OVCAR-8
RPMI-8226 = test system: RPMI-8226
SR = test system: SR
UACC-62 = test system: UACC-62
COLO 205 = test system: COLO 205
OVCAR-4 = test system: OVCAR-4
SNB-75 = test system: SNB-75

Measured: GI50

CC(C)(Oc1ccc(C(=O)c2ccc(Cl)cc2)cc1Cl)C(=O)Nc1c(Cl)cccc1Cl
inactive: EKVX > 100 µM | HCT-116 > 100 µM | HL-60 10.7 µM | KM12 > 100 µM | LOX IMVI > 100 µM | LXFL 529 > 100 µM | M14 > 100 µM | NCI-H460 5.77 µM | OVCAR-3 > 100 µM | OVCAR-8 > 100 µM | RPMI-8226 > 100 µM | SR 9.75 µM | UACC-62 > 100 µM

O=c1sc(-c2nc3ccccc3[nH]2)c(/N=C/c2ccccc2)n1-c1ccccc1
inactive: COLO 205 56.4 µM | EKVX > 100 µM | HL-60 > 100 µM | KM12 73.3 µM | LOX IMVI 40.3 µM | LXFL 529 30.3 µM | M14 48.9 µM | OVCAR-3 25.6 µM | OVCAR-4 6.12 µM | OVCAR-8 35.6 µM | RPMI-8226 > 100 µM | SNB-75 21.6 µM | UACC-62 52.5 µM

CC(=O)c1ccc(N2C(=O)C3c4[nH]c5ccccc5c4C4CCC(C(C)(C)C)CC4C3C2=O)cc1 (configuration not stated)
inactive: COLO 205 15.2 µM | EKVX 30.5 µM | HCT-116 16.6 µM | HL-60 27.1 µM | LXFL 529 29.3 µM | M14 23.9 µM | OVCAR-4 30.9 µM | OVCAR-8 22.4 µM | RPMI-8226 23.3 µM | SNB-75 22.6 µM | SR 26.7 µM | UACC-62 21.1 µM

C=CCC(N(C)C(=O)[C@H](Cc1ccccc1)NC(=O)OCc1ccccc1)P(=O)(Oc1ccccc1)Oc1ccccc1 (some centres not stated)
inactive: COLO 205 8.43 µM | EKVX > 100 µM | HCT-116 5.9 µM | HL-60 12.8 µM | KM12 > 100 µM | LOX IMVI > 100 µM | LXFL 529 6.79 µM | M14 > 100 µM | NCI-H460 6.1 µM | OVCAR-3 > 100 µM | OVCAR-8 > 100 µM | RPMI-8226 6.81 µM | SNB-75 80.5 µM | SR 6.37 µM | UACC-62 > 100 µM

O=C1CCCCCCCCCCC(=O)N2CCOCCOCCN1Cc1cccc(n1)C2
inactive: COLO 205 > 100 µM | EKVX > 100 µM | HCT-116 > 100 µM | KM12 > 100 µM | LOX IMVI > 100 µM | LXFL 529 > 100 µM | M14 > 100 µM | NCI-H460 > 100 µM | OVCAR-3 44.5 µM | OVCAR-4 > 100 µM | OVCAR-8 > 100 µM | RPMI-8226 36.1 µM | SNB-75 56 µM | UACC-62 > 100 µM
